Reference: US11291719B2, “Methods and compositions for modulating Akt3” (Augusta University Research Institute, Inc., priority 2016, dated 2022)

Columns and labels:
TC-1 tumor = TC-1 tumor growth and survival, alone or with vaccine; type: in vivo, mouse; conditions: high dose as monotherapy, lower dose combined with vaccine
Experimental: (§1) C57BL/6 mice (n=5/group) were injected s.c. in the right flank with 7×10^4 TC-1 cells. Mice from appropriate groups were injected weekly with vaccine (s.c.) or DMSO 5% as a control. Mice were also treated with vaccine (weekly) along with either 10 mg/kg or 20 mg/kg of JJ64-E injected (i.p.) every day starting on day 6 after tumor implantation throughout the experiment.
FIGS. 5B and 5C are bar diagrams showing average tumor volumes of mice for each group. FIG. 5D is a Kaplan-Meier plot of the overall survival. Statistical significance was determined by Log-rank (Mantel-Cox) test.
(§2) Statistical significance was determined by one-way ANOVA with Tukey's multiple comparison test (*, p<0.05; **, p<0.01; ***, p<0.001).
as §1, with “JJ64-C(or FIG. 7A or Formula 18)” for “JJ64-E”, “every other” for “every”
FIGS. 7C and 7D are bar diagrams representing average tumor volumes of mice for each group. FIG. 7E is a Kaplan-Meier plot of the overall survival. Statistical significance was determined by Log-rank (Mantel-Cox) test.

[1] = test system: iTreg induction (CD4+FoxP3+ cells); experiment: iTreg induction from CD4+FoxP3- cells with TGF-β (flow cytometry); type: cell-based; conditions: 72 hrs, frequency of CD4+FoxP3+ cells
Experimental: (§3) FACS-sorted CD4+FoxP3− cells were plated on anti-CD3-coated plates with soluble IL2 and ant-CD28 with TGF-β (induction) Cell were induced for iTregs with JJ64-B (FIG. 6A) without inhibitor (Induction-IND)) or for 72 hrs. Cells were harvested and the frequency of CD4+FoxP3+ cells was measured by flow cytometry.
as §3, with “JJ64-C (JJ64 modified drug C or Formula 18) or” for “JJ64-B (FIG. 6A)”
as §3, with “JJ64-D (JJ64 modified drug D or FIG. 9A) or” for “JJ64-B (FIG. 6A)”

[2] = test system: CD8 and other (FoxP3neg) CD4 T cells; experiment: TC-1 tumor model: percentage of CD4 and CD8 T cells by flow cytometry; type: in vivo, mouse; conditions: 5 mg/kg or 10 mg/kg i.p. every day from day 10, analysed day 15
Experimental: (§4) WT C57BL/6 4-6 weeks old female mice (n=5/group) were injected s.c. in the right flank with 7×10^4 TC-1 cells. Mice from appropriate groups were treated with either 5 mg/kg or 10 mg/kg of JJ64-E injected (i.p.) everyday starting on day 10 after tumor implantation throughout the experiment. All groups were euthanized on day 15 of TC-1 implantation. The percentage of CD4 and CD8 were analyzed in splenic CD4+ cells by flow cytometry.

Tregs (CD4+Foxp3+) = experiment: TC-1 tumor model: percentage of Tregs by flow cytometry; type: in vivo, mouse; conditions: 5 mg/kg or 10 mg/kg i.p. every day from day 10, analysed day 15
Experimental: as §4, with “C57BL/6J” for “C57BL/6 4-6 weeks old female”, “(n=3/group)” for “(n=5/group)”, “every day” for “everyday”, “Tregs (CD4+Foxp3+) was” for “CD4 and CD8 were”, “analyzed” for “analyzed in splenic CD4+ cells”
as §2

nTregs = experiment: Proliferation (VCT, flow cytometry) of activated nTregs; type: cell-based, mouse; conditions: 72 hrs, anti-CD3, IL2 and anti-CD28
Experimental: (§5) FACS-sorted nTregs, CD4+ and CD8+ T cells from C57BL/6J(foxp3-GFP) were plated on anti-CD3-coated plates and cultured in activation media (IL2 and anti-CD28) without inhibitors (Stimulated) and with inhibitors (JJ64-E) for 72 hrs. For negative control (Non-stimulated-NS) cells were left in media containing IL-2 for 72 hrs. After 72 hrs Proliferation (level of VCT) in live gated cells was measured by flow cytometry.

Akt3 = molecular target: T1, Akt3 (Mus musculus, UniProt Q9WUA6); experiment: Immunoblot of pAkt3 in activated nTregs; type: cell-based; conditions: 72 hrs
T1 construct: nTreg cell lysates prepared on day 3 (72 hrs) of treatment were separated by SDS-PAGE and immunoblotted; endogenous in cells; host or cells: primary mouse nTregs (C57BL/6J foxp3-GFP)
T1 sequence (Q9WUA6 whole entry): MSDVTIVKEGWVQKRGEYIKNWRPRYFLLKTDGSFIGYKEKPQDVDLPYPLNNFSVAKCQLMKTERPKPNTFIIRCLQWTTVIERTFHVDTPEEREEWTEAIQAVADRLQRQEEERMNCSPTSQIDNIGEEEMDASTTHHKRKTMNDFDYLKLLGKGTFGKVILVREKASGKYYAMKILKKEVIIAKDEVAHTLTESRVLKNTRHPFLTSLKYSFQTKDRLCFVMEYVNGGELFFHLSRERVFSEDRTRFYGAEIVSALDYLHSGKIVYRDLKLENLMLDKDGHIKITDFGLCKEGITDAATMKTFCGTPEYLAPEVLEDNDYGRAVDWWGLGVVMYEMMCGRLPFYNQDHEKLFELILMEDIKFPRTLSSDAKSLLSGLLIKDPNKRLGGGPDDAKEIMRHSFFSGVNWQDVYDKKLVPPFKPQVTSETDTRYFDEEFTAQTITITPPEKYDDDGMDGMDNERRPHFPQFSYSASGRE
Experimental: (§6) FACS-sorted natural regulatory T cells (nTregs), from WT C57BL/6J (foxp3-GFP) mice were plated on anti-CD3-coated plates and cultured in activation media (IL2 and anti-CD28) without inhibitors (Stimulated) and with different concentrations of inhibitor 4-[(6-nitroquinolin-4-yl)amino]-N-[4-(pyridin-4-ylamino)phenyl]benzamide (also referred to as JJ64-E) for 72 hrs. For negative control (Non-stimulated-NS) cells were left in media containing IL-2 for 72 hrs. nTreg cell lysates prepared on day 3 (72 hrs) of treatment were separated by SDS-PAGE and immunoblotted with specific antibodies (pAkt1) or pAkt3; actin was used as loading control.

Akt1 = molecular target: T2, Akt1 (Mus musculus, UniProt P31750); experiment: Immunoblot of pAkt1 in activated nTregs; type: cell-based; conditions: 72 hrs
T2 construct: endogenous in cells; host or cells: primary mouse nTregs (C57BL/6J foxp3-GFP)
T2 sequence (P31750 whole entry): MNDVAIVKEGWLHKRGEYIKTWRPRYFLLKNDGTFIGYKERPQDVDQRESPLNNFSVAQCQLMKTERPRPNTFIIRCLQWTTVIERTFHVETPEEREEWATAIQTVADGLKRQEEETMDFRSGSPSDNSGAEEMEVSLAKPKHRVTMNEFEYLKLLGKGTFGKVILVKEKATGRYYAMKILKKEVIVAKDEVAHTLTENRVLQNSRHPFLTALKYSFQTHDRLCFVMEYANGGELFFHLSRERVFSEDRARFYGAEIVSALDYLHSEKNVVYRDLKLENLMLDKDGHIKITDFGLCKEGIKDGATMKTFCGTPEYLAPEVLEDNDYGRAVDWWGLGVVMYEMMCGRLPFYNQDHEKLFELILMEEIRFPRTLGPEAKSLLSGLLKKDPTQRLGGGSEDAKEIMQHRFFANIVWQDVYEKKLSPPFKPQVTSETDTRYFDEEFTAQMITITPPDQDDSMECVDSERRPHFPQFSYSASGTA
Experimental: as §6

CD4+ and CD8+ T cells = experiment: Proliferation (VCT, flow cytometry) of activated CD4+ and CD8+ T cells; type: cell-based, mouse; conditions: 72 hrs, anti-CD3, IL2 and anti-CD28
Experimental: as §5

[3] = JJ64-C i.p. every other day from day 6
[4] = JJ64-E i.p. every day from day 6

| Structure (SMILES) | TC-1 tumor growth (TC-1 tumor; [3]) | survival of TC-1 tumor mice (TC-1 tumor; [3]) | iTreg induction [1] | TC-1 tumor growth (TC-1 tumor; [4]) | survival of TC-1 tumor mice (TC-1 tumor; [4]) | CD8 and other (FoxP3neg) CD4 T cells in TC-1 tumor model [2] | Tregs in vivo in TC-1 tumor model (Tregs (CD4+Foxp3+)) | Treg proliferation (nTregs) | Akt3 phosphorylation in Tregs (Akt3) | Akt1 phosphorylation in Tregs (Akt1) | proliferation of CD8 and other CD4 T cells (CD4+ and CD8+ T cells) |
| --- | --- | --- | --- | --- | --- | --- | --- | --- | --- | --- | --- |
| O=C(Nc1cccc(Nc2ccncc2)c1)c1cccc(Nc2ccnc3ccc(F)cc23)c1 [Compound 18] | inhibits | prolongs | inhibits |  |  |  |  |  |  |  |  |
| O=C(Nc1ccc(Nc2ccncc2)cc1)c1ccc(Nc2ccnc3ccc([N+](=O)[O-])cc23)cc1 [Compound 1, 4-[(6-nitroquinolin-4-yl)amino]-N-[4-(pyridin-4-ylamino)phenyl]benzamide] |  |  |  | inhibits | prolongs | does not affect | decreases | selectively inhibits | inhibits | not | sparing |
